Converted amounts (≈) assume the structure as drawn. Where a name gives a salt, the structure may show the parent alone. Read-outs that look alike come from different tables or passages of the source.
Experiments:
[1] = molecular target: Leucyl-tRNA synthetase (LeuRS) (Escherichia coli (strain K12), UniProt P07813); test: Leucyl-tRNA synthetase enzyme inhibition (AMP-Glo; single point % inhibition at 100 μM and IC50); assay type: biochemical
Text: Study 1—Enzyme Inhibition
The aminoacylation reaction catalyzed by aminoacyl-tRNA synthetases (aaRS) takes place in two steps. In the first step, aaRS activates its cognate amino acid with ATP; and in the second step the activated amino acid is loaded to its corresponding tRNA. This reaction can be summarized as follows: aaRS+aa+ATP=aaRS-aa-AMP+PPi aaRS-aa-AMP+tRNA=aa-tRNA+AMP+aaRS
wherein: aaRS, aminoacyl-tRNA synthetase; aa, amino acid; aaRS-aa-AMP, enzyme-bound to aminoacyl-adenylate; AMP, adenosine monophosphate; aa-tRNA, aminoacyl-tRNA, PPi, inorganic pyrophosphate.
a. Single Point Percentage Inhibition
The activity of the pathogenic aaRSs was monitored by measuring AMP production using the commercial kit AMP-Glo (Promega, Madison, USA).
Ligand stock solutions were prepared in 100% DMSO at 10 mM concentration. An assay buffer consisting of 100 mM Tris HCl pH 7.6, 40 mM MgCl, 20 mM KCl and 150 mM NaCl was prepared in dH2O.
Using the same enzymatic assay in a 384-well plate format, ten point concentration response curves were generated for each compound using a top concentration of 10 μM. The known inhibitor LeuAMS was used as a positive control for the LeuRS assay. 100% DMSO was used as a negative control. The IC50 was calculated based on non-linear regression analysis.

[2] = Human cell viability / cytotoxicity (CellTiter-Glo, 24 hours); assay type: cell-based; conditions: human, HepG2 cells (ATCC HB-8065); HepG2 ATCC HB-8065, 24 hours; read-out: Cytotoxicity in HepG2 ATCC HB-8065 Cell Line, IC50
Experimental: Study 3—Human Cell Viability
Compounds were assessed for potential non-specific cytotoxic effects against a human hepatic cell line (HepG2 ATCC HB-8065). 96-well plates were seeded with HepG2 cells in concentration of 15,000 cells per well in 100 μL of MEM growth media completed with 1% NEAA and 1% sodium pyruvate. Border wells were filled with 100 μL of sterile PBS. Two days upon cells incubation, the compounds were added. Compound dilutions were prepared in 96-well V-bottom plate in pure DMSO. Growth media from 5 plates were aspirated and replaced with 98.7 μL of fresh growth media. 1.28 μL of compounds prepared in V-bottom plates were transferred with multichannel pipette into test plates (78.1× dilution). Final DMSO concentration was 1.28% per well. In control wells, 1.28 μL of DMSO was added in 98.7 μL of media. Compounds were tested in duplicates. Cells were incubated with compounds for 24 hours when cell viability was assessed by measuring ATP levels. ATP levels were measured by adding 50 μL of CellTiter-Glo reagent to each well and after 5 minutes of incubation luminescence was measured with SpectraMax i3. The potential effect of tested compounds on cell viability was determined by comparing the signal obtained in presence of different concentrations of the compounds with those obtained in the presence of DMSO only. The potential effects were then calculated and presented as IC50 values (μg/mL).

[3] = system: bacteria (ATCC reference strains); test: Antibacterial activity, MIC by broth micro-dilution (CLSI)
[4] = E. coli LeuRS, read-out: Enzyme Inhibition - IC50, E. coli LeuRS
[5] = Acinetobacter baumannii, read-out: Antibacterial Activity (MIC), E = A. baumannii B1931
[6] = Escherichia coli, ATCC25922, read-out: Antibacterial Activity (MIC), A = E. coli ATCC 25922
[7] = Haemophilus influenzae, ATCC49247, read-out: Antibacterial Activity (MIC), F = H. influenzae ATCC 49247
[8] = Klebsiella pneumoniae, ATCC700603, read-out: Antibacterial Activity (MIC), C = K. pneumoniae ATCC 700603
[9] = Pseudomonas aeruginosa, ATCC27853, read-out: Antibacterial Activity (MIC), D = P. aeruginosa ATCC 27853
[10] = Escherichia coli, BAA2469, read-out: Antibacterial Activity (MIC), G = E. coli BAA-2469

Chain of Leucyl-tRNA synthetase (LeuRS) (P07813 whole entry, looked up): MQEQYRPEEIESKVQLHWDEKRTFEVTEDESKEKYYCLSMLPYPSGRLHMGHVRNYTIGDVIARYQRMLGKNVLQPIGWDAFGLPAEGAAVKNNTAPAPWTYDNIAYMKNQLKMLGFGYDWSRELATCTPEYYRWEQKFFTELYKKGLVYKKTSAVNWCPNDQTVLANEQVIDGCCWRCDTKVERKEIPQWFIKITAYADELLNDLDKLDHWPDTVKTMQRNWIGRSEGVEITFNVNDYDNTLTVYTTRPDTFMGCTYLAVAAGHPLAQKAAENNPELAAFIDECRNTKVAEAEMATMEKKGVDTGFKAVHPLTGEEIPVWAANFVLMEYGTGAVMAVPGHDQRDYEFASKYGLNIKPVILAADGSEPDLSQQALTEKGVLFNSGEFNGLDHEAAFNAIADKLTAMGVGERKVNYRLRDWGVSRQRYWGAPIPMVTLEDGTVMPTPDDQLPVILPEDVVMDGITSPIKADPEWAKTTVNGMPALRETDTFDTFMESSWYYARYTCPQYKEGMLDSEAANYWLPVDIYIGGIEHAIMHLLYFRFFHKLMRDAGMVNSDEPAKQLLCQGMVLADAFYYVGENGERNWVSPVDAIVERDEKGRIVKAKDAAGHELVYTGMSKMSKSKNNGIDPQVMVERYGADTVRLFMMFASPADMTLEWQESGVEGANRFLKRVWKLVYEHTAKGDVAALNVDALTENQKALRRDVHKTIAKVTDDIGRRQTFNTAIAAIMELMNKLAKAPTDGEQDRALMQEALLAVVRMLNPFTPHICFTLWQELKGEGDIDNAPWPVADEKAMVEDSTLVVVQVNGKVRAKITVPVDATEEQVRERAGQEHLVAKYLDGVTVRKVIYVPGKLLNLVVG

SMILES	IC50 [1]	IC50 at 24 h [2]	IC50 [1, 4]	other results
CC(C)C[C@H](N)C(=O)N=S(N)(=O)c1csc(Cl)c1 (mixture of isomers) [ANASIA-099]	72.2 nM	> 64 µg/mL		
CC(C)C[C@H](N)C(=O)N=[S@](N)(=O)c1cccs1.Cl (single isomer, unassigned) [ANASIA-007-1, (S)-2-amino-N—((S)-amino(oxo)(thiophen-2-yl)-λ6-sulfanylidene)-4-methylpentanamide hydrochloride]		> 64 µg/mL	63.3 nM	
CC(C)C[C@H](N)C(=O)N=S(N)(=O)c1cccc(Cl)c1F (stereo partly drawn) [ANASIA-001, (2S)-2-amino-N-(amino(3-chloro-2-fluorophenyl)(oxo)-λ6-sulfanylidene)-4-methylpentanamide 2,2,2-trifluoroacetate]		> 64 µg/mL	429 nM	MIC [3, 5]: > 64 µg/mL; MIC ([3]; Enterobacter cloacae, read-out: Antibacterial Activity (MIC), B = Enterobacter cloacae B1966): > 64 µg/mL; MIC [3, 6]: 32 µg/mL (≈ 99.4 µM); MIC [3, 7]: > 64 µg/mL; MIC [3, 8]: > 64 µg/mL; MIC [3, 9]: > 64 µg/mL
CC(C)C[C@H](N)C(=O)N=[S@@](N)(=O)c1cccc(Cl)c1F [ANASIA-001-2]		> 64 µg/mL	3530 nM	
CC(C)C[C@H](N)C(=O)N=[S@@](N)(=O)c1ccccc1 [ANASIA-003-2, (S)-2-amino-N—((R)-amino(oxo)(phenyl)-λ6-sulfanylidene)-4-methylpentanamide hydrochloride]		> 64 µg/mL	2260 nM	
Cc1cccc([S@@](N)(=O)=NC(=O)[C@@H](N)CC(C)C)c1 [ANASIA-005-1]	3030 nM	> 64 µg/mL		
CC(C)C[C@H](N)C(=O)N=[S@@](N)(=O)c1ccsc1 [ANASIA-008-2]		> 64 µg/mL	2000 nM	
CC(C)C[C@H](N)C(=O)N=[S@](N)(=O)c1ccc(Cl)s1 [ANASIA-009-1]	1830 nM	> 64 µg/mL		
CC(C)C[C@H](N)C(=O)N=[S@](N)(=O)c1cccc(F)c1 [ANASIA-011-1]		> 64 µg/mL		
CC(C)C[C@H](N)C(=O)N=[S@@](N)(=O)c1cccc(F)c1 [ANASIA-011-2]		> 64 µg/mL		
CC(C)C[C@H](N)C(=O)N=S(N)(=O)c1cccc(F)c1 (stereo partly drawn) [ANASIA-011]		> 64 µg/mL		
CC(C)C[C@H](N)C(=O)N=[S@@](N)(=O)c1sccc1Cl [ANASIA-012-2]		> 64 µg/mL	3230 nM	
CC(C)C[C@H](N)C(=O)N=S(N)(=O)c1ccc2ccccc2c1 (stereo partly drawn) [ANASIA-013]		> 64 µg/mL	3570 nM	
Cc1ccc([S@](N)(=O)=NC(=O)[C@@H](N)CC(C)C)s1 [ANASIA-014-2]		> 64 µg/mL	3980 nM	
Cc1ccsc1[S@](N)(=O)=NC(=O)[C@@H](N)CC(C)C [ANASIA-015-2]		> 64 µg/mL	1860 nM	
CC(C)C[C@H](N)C(=O)N=[S@](N)(=O)c1cccc2ccccc12 [ANASIA-016-1]	2200 nM	> 64 µg/mL		
CC(C)C[C@H](N)C(=O)N=[S@@](N)(=O)c1cccc2ccccc12 [ANASIA-016-2]		> 64 µg/mL	5560 nM	
CC(C)C[C@H](N)C(=O)N=S(N)(=O)c1cccc2ccccc12 (stereo partly drawn) [ANASIA-016]		> 64 µg/mL	3040 nM	
CC(C)C[C@H](N)C(=O)N=[S@](N)(=O)c1ccc(C(F)F)s1.Cl [ANASIA-017-1]		> 64 µg/mL		MIC [3, 5]: > 64 µg/mL; MIC [3, 6]: 4 µg/mL; MIC [3, 10]: 22.6 µg/mL; MIC [3, 7]: 4 µg/mL; MIC [3, 8]: > 256 µg/mL; MIC [3, 9]: > 64 µg/mL
CC(C)C[C@H](N)C(=O)N=[S@](N)(=O)c1cccc(-c2ccccc2)c1 [ANASIA-018-1]	223 nM	> 64 µg/mL		
CC(C)C[C@H](N)C(=O)N=[S@@](N)(=O)c1cccc(-c2ccccc2)c1 [ANASIA-018-2]		> 64 µg/mL	2970 nM	
CC(C)C[C@H](N)C(=O)N=S(N)(=O)c1ccc(Cl)c2ccccc12 (stereo partly drawn) [ANASIA-019]		> 64 µg/mL	2260 nM	

SMILES	IC50 [1]	IC50 at 24 h [2]	IC50 [1, 4]	other results
CC(C)C[C@H](N)C(=O)N=[S@](N)(=O)c1ccc(F)c2ccccc12 [ANASIA-020-1]	2050 nM	> 64 µg/mL		
CC(C)C[C@H](N)C(=O)N=[S@@](N)(=O)c1ccc(F)c2ccccc12 [ANASIA-020-2]		> 64 µg/mL	4090 nM	
Cc1ccc([S@@](N)(=O)=NC(=O)[C@@H](N)CC(C)C)cc1 [ANASIA-021-1]	2060 nM	> 64 µg/mL		
COc1ccc([S@@](N)(=O)=NC(=O)[C@@H](N)CC(C)C)cc1C [ANASIA-022-1]	6570 nM	> 64 µg/mL		
CC(C)C[C@H](N)C(=O)N=S(N)(=O)c1cc2ccccc2s1 (stereo partly drawn) [ANASIA-023]	1290 nM	> 64 µg/mL		
CC(C)C[C@H](N)C(=O)N=[S@@](N)(=O)c1cc(F)ccc1F [ANASIA-024-2]		> 64 µg/mL	6280 nM	
CC(C)C[C@H](N)C(=O)N=[S@](N)(=O)c1c(F)cccc1F [ANASIA-026-1]	564 nM	> 64 µg/mL		
CC(C)C[C@H](N)C(=O)N=[S@@](N)(=O)c1c(F)cccc1F [ANASIA-026-2]		> 64 µg/mL	4420 nM	
Cc1cc(F)ccc1[S@@](N)(=O)=NC(=O)[C@@H](N)CC(C)C [ANASIA-027-1]	4530 nM	> 64 µg/mL		
CC[C@H](C)[C@H](N)C(=O)N=S(N)(=O)c1ccc2ccccc2c1 (stereo partly drawn) [ANASIA-030]		> 64 µg/mL		
Cc1cnc(S(N)(=O)=NC(=O)[C@@H](N)CC(C)C)s1 (stereo partly drawn) [ANASIA-039]		> 64 µg/mL	8830 nM	
CC(C)C[C@H](N)C(=O)N=[S@](N)(=O)c1ccc(Cl)cc1 [ANASIA-040-1]	2540 nM	> 64 µg/mL		
CC(C)C[C@H](N)C(=O)N=[S@@](N)(=O)c1cccc(C#N)c1 [ANASIA-041-2]		> 64 µg/mL	832 nM	
CC(C)C[C@H](N)C(=O)N=[S@](N)(=O)c1ccc(Cl)c(Cl)c1 [ANASIA-042-1]	1110 nM	> 64 µg/mL		
CC(C)C[C@H](N)C(=O)N=[S@@](N)(=O)c1ccc(Cl)c(Cl)c1 [ANASIA-042-2]		> 64 µg/mL	7920 nM	
CC(C)C[C@H](N)C(=O)N=[S@@](N)(=O)c1cccc(C(C)C)c1 [ANASIA-043-2]		> 64 µg/mL	735 nM	
CC(C)C[C@H](N)C(=O)N=[S@@](N)(=O)c1cccc(Cl)c1Cl [ANASIA-046-2]	2570 nM	> 64 µg/mL		
CC(C)C[C@H](N)C(=O)N=[S@@](N)(=O)c1cccc(Oc2ccc(Cl)cc2)c1 [ANASIA-047-2]		45.3 µg/mL (≈ 114 µM)	1290 nM	
CC(C)C[C@H](N)C(=O)N=[S@](N)(=O)c1cccc(C(C)(C)C)c1 [ANASIA-049-1]	296 nM	> 64 µg/mL		
CC(C)C[C@H](N)C(=O)N=[S@](N)(=O)c1cccc(-c2cccc(F)c2)c1 [ANASIA-051-1, (S)-2-amino-N—((S)-amino(3′-fluoro-[1,1′-biphenyl]-3-yl)(oxo)-λ6-sulfanylidene)-4-methylpentanamide hydrochloride]	601 nM	> 64 µg/mL		
CC(C)C[C@H](N)C(=O)N=[S@@](N)(=O)c1csc(C#N)c1.Cl [ANASIA-135-2]			262 nM	MIC [3, 6]: 8 µg/mL; MIC [3, 10]: 64 µg/mL; MIC [3, 8]: > 256 µg/mL
CC(C)C[C@H](N)C(=O)N=[S@](N)(=O)c1cc(C#N)cs1.Cl [ANASIA-136-1]	71.8 nM			MIC [3, 6]: 8 µg/mL; MIC [3, 10]: > 64 µg/mL; MIC [3, 8]: > 256 µg/mL

From patent publication US12247004B2, “2-amino-N-(amino-oxo-aryl-lambda6-sulfanylidene)acetamide compounds and their therapeutic use” (Oxford Drug Design Limited, priority 2019, dated 2025)
